Literature values, collected in patent publication US20020032197A1 (priority 1998, published 2002).

Legend:
young healthy adults = conditions: 5 mg dose
individuals with RSBD = conditions: in vivo
[1] = test system: healthy volunteers exposed to an acute nociceptive stimulus; conditions: single oral dosing, 10 healthy volunteers
women with PMS = conditions: in vivo
MAO-A [2] = molecular target: T1, MAO-A (Homo sapiens, UniProt P21397)
T1 sequence (P21397 1-527): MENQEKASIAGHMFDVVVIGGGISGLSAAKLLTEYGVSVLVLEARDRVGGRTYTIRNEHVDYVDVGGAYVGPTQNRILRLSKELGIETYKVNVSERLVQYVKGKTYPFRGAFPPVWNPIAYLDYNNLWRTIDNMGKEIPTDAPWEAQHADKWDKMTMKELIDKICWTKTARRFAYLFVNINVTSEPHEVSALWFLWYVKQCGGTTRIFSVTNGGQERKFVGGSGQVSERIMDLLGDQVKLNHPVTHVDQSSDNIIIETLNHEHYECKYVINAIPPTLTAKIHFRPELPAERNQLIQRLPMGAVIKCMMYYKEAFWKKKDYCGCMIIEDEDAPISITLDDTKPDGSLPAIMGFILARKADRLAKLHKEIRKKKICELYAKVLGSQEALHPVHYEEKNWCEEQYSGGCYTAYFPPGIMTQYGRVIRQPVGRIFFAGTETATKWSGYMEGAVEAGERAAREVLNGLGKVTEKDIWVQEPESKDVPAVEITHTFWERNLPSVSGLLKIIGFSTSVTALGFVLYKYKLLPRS

MAO-A [3] = molecular target: T1, MAO-A; conditions: ex vivo
dopaminergic receptors = conditions: in vitro
adrenergic receptors = conditions: in vitro
benzodiazepine receptors = conditions: in vitro
opioid receptors = conditions: in vitro
monoamine metabolism = conditions: humans
[4] = doses as high as 600 mg daily
[5] = test system: sleep of healthy volunteers
MAO-A [6] = molecular target: T1, MAO-A; remark: listed apart in the source
[7] = fluoxetine, bupropion and placebo compared

COc1ccc2[nH]cc(CCNC(C)=O)c2c1 [Melatonin]
sleep propensity and duration of sleep (young healthy adults): increased sleep propensity and the duration of sleep

CC(NC(C)(C)C)C(=O)c1cccc(Cl)c1 (stereo not shown) [bupropion]
efficacy and patient satisfaction in women with PMDD (women with PMDD; [7]): some improvement

O=C1CN=C(c2ccccc2Cl)c2cc([N+](=O)[O-])ccc2N1 [clonazepam]
cases of RSBD in which effective (individuals with RSBD): approximately 90%

CNCCCN1c2ccccc2CCc2ccccc21 [desipramine]
antinociceptive effect [1]: antinociceptive effect

CNCCC(Oc1ccc(C(F)(F)F)cc1)c1ccccc1 (stereo not shown) [fluoxetine]
efficacy and patient satisfaction in women with PMDD (women with PMDD; [7]): greater | tolerability in women with PMDD (women with PMDD; [7]): well tolerated | treatment of a range of symptoms in women with PMS (women with PMS): effective and well-tolerated

COCCCC/C(=N\OCCN)c1ccc(C(F)(F)F)cc1 [fluvoxamine]
antinociceptive effect [1]: antinociceptive effect

O=C(NCCN1CCOCC1)c1ccc(Cl)cc1 [moclobemide, p-chloro-N-(2-morpholinoethyl)-benzamide]
in vitro binding to MAO-A (MAO-A [2]): weak | time to recovery of enzyme activity (reversible binding) (MAO-A [3]): ≤ 16 h | affinity for dopaminergic receptors (dopaminergic receptors): no appreciable affinity | affinity for adrenergic receptors (adrenergic receptors): no appreciable affinity | affinity for benzodiazepine receptors (benzodiazepine receptors): no appreciable affinity | affinity for opioid receptors (opioid receptors): no appreciable affinity | plasma levels of homovanillic acid, 3,4-dihydroxyphenylacetic acid, 3-methoxy-4-hydroxyphenylglycol and 5-hydroxyindoleacetic acid (monoamine metabolism): reductions | bioavailability (after multiple administrations): approx. 85% | number of different metabolites (in vivo): at least 19 | elimination (patients with hepatic dysfunction): impaired | absorption (single-dose oral administration): almost completely absorbed | tolerability [4]: well-tolerated | effects on sleep in comparison to other MAO inhibitors [5]: weak | antinociceptive effect [1]: antinociceptive effect

O=C(NCC[N+]1([O-])CCOCC1)c1ccc(Cl)cc1 [moclobemide-N-oxide, p-chloro-N-(2-morpholinoethyl)-benzamide-N′-oxide]
MAO-A inhibitory activity (MAO-A [6]): MAO-A inhibitory activity

NNCCc1ccccc1 [phenelzine]
reduction of PTSD symptoms versus placebo (PTSD patients; Frank et al.): superior to placebo | PTSD patients helped (PTSD patients; open trial (Davidson et al.)): 8 of 11 | response of patients with traumatic war neuroses (PTSD patients; open trial, 5 patients, after failing antipsychotics, tricyclics and psychotherapy): responded positively | clinical improvement in PTSD patients (PTSD patients; treated openly for 4 to 18 weeks (Lerer et al.)): only modest clinical improvement

CN[C@H]1CC[C@@H](c2ccc(Cl)c(Cl)c2)c2ccccc21 [sertraline]
treatment of PMDD, symptomatic improvement and change in reported functional impairment (women with PMDD; versus placebo): significantly better than placebo
